Data published in patent publication US10800784B2, “Nitrogen-containing heterocyclic amide compound and pharmaceutical use thereof” (Japan Tobacco Inc., priority 2018, dated 2020).

Legend:
human PDHK1 (hPDHK1) = human PDHK1 (hPDHK1) (Homo sapiens (Human), UniProt Q15118); experiment: Inhibitory action of PDHK1 activity in vitro (residual PDH activity after PDHK reaction); type: biochemical; conditions: for IC50: PDH/hPDHK1 complex solution, PDHK reaction at room temperature for 45 min, NADH absorbance at 340 nm, read-out: hPDK1 IC50; for inhibition at 0.003 µM: at 3 nmol/L, shown when IC50 value could not be calculated, read-out: hPDHK1 inhibitory rate at the lowest concentration of the test compound
Experimental: (§1) The inhibitory action of PDHK activity was assessed indirectly by measuring the residual PDH activity after PDHK reaction in the presence of a test compound.
(Inhibitory Action of PDHK1 Activity)
In the case of human PDHK1 (hPDHK1, NCBI Reference Database Accession number NM_002610.3), a 1.3 kbp fragment encoding this protein was isolated from human liver cDNA by polymerase chain reaction (PCR). Modified hPDHK1 cDNA wherein FLAG-Tag sequence was added to the N terminus was prepared by PCR and ligated to the NdeI/EcoRI site of pET-17b vector (Merck MGaA, model number 69663-3). The recombinant construct was transformed into Escherichia coli DH5a (TOYOBO, model number DNA-903). The recombinant clones were identified, and plasmid DNA was isolated and subjected to the DNA sequence analysis. One clone which had the expected nucleic acid sequence was selected for expression work.
For expression of hPDHK1 activity, Escherichia coli strain BL21(DE3) cells (Merck KGaA, model number 69450-4) were transformed with the pET17b vector containing modified hPDHK1 cDNA. The Escherichia coli were grown to an optical density 0.6 ([…]) at 30° C. Protein expression was induced by the addition of 500 μmol/L isopropyl-β-thiogalactopyranoside. The Escherichia coli were cultured at 20° C. for 17-18 hr and harvested by centrifugation.
The harvested Escherichia coli was resuspended in a suspension buffer (20 mmol/L N-(2-hydroxyethyl)piperazine-N′-2-ethanesulfonic acid-sodium hydroxide (HEPES-NaOH), 500 mmol/L sodium chloride, 1% ethylene glycol, and 0.1% polyoxyethylene-polyoxypropylene block copolymer (Pluronic F-68), complete, EDTA-free (pH 8.0)) and disrupted by a microfluidizer M-110H (MIZUHO INDUSTRIAL CO., LTD.) or ultrasonication. The precipitate was removed by centrifugation and the supernatant was added to DDDDK-tagged Protein PURIFICATION GEL (MBL, model number 3329). DDDDK-tagged Protein PURIFICATION GEL was washed with a washing buffer (20 mmol/L HEPES-NaOH, 500 mmol/L sodium chloride, 1% ethylene glycol, 0.1% pluronic F-68 (pH 8.0)) and the bound protein was eluted with elution buffer 1 (20 mmol/L HEPES-NaOH, 100 μg/mL peptide (amino acid sequence DYKDDDDK) (SEQ ID NO: 1), 500 mmol/L sodium chloride, 1% ethylene glycol, 0.1% pluronic F-68 (pH 8.0)).
The eluted fractions containing FLAG-Tagged protein were pooled, concentrated by an ultrafiltration method, added to a gel filtration column (HiLoad 26/60 Superdex 200 (GE Healthcare, model number 17-1070-01)), and eluted with elution buffer 2 (20 mmol/L HEPES-NaOH, 150 mmol/L sodium chloride, 0.5 mmol/L ethylenediaminetetraacetic acid (EDTA), 1% ethylene glycol, 0.1% pluronic F-68 (pH 8.0)). The eluted fractions were pooled and preserved at −80° C.
(§2) 0.025 U/mL PDH (porcine heart PDH complex, Sigma P7032) and 0.5 μg/mL hPDHK1 were mixed in an assay buffer (50 mmol/L 3-morpholinopropanesulfonic acid (pH 7.0), 20 mmol/L dipotassium hydrogen phosphate, 60 mmol/L potassium chloride, 2 mmol/L magnesium chloride, 0.4 mmol/L EDTA, 0.2% poloxamer, 2 mmol/L dithiothreitol), and the mixture was incubated at 4° C. overnight to obtain a PDH/hPDHK1 complex solution. In the assay buffer, 0.025 U/mL PDH was mixed and incubated at 4° C. overnight to prepare a PDH solution.
The test compounds were diluted with dimethyl sulfoxide (DMSO). To measure an inhibitory action of the test compound on the PDHK activity in the PDH/hPDHK1 complex solution, PDH/hPDHK1 complex solution (20 μL), test compound (1.5 μL) and 0.353 μmol/L ATP (diluted with assay buffer) (8.5 μL) were added to a 384 well microplate (Greiner Bio-One 781801) and PDHK reaction was performed at room temperature for 45 min (test compound well). DMSO (1.5 μL) was added to control wells instead of test compound. In addition, DMSO (1.5 μL) was added to blank wells instead of the test compound, and PDH solution was added instead of the PDH/hPDHK1 complex solution. […]

human PDHK2 (hPDHK2) = human PDHK2 (hPDHK2) (Homo sapiens (Human), UniProt Q15119); experiment: Inhibitory action of PDHK2 activity in vitro (residual PDH activity after PDHK reaction); type: biochemical; conditions: for IC50: PDH/hPDHK2 complex solution, PDHK reaction at room temperature for 45 min, NADH absorbance at 340 nm, read-out: kPDK2 IC50
Experimental: as §1
(Inhibitory Action of PDHK2 Activity)
In the case of human PDHK2 (hPDHK2, NCBI Reference Database Accession number NM_002611.4), modified hPDHK2 cDNA wherein FLAG-Tag sequence was added to the N terminus of hPDHK2 cDNA clone (pReceiver-M01/PDK2-GeneCopoeia) as the base was prepared by PCR and ligated to the NdeI/EcoRI site of pET-17b vector. The recombinant construct was transformed into Escherichia coli DH5a. The recombinant clones were identified, and plasmid DNA was isolated and subjected to the DNA sequence analysis. One clone which had the expected nucleic acid sequence was selected for expression work.
For expression of hPDHK2 activity, Escherichia coli strain BL21(DE3) cells were transformed with the pET17b vector containing modified hPDHK2 cDNA. The Escherichia coli were grown to an optical density 0.6 ([…]) at 30° C. Protein expression was induced by the addition of 500 μmol/L isopropyl-β-thiogalactopyranoside. The Escherichia coli were cultured at 20° C. for 17-18 hr and harvested by centrifugation. The harvested Escherichia coli was resuspended in a suspension buffer (20 mmol/L HEPES-NaOH, 500 mmol/L sodium chloride, 1% ethylene glycol, 0.1% pluronic F-68 (pH 8.0), cOmplete, EDTA-free (pH 8.0)), and disrupted by a microfluidizer. The precipitate was removed by centrifugation and the supernatant was added to DDDDK-tagged Protein PURIFICATION GEL. DDDDK-tagged Protein PURIFICATION GEL was washed with a washing buffer (20 mmol/L HEPES-NaOH, 500 mmol/L sodium chloride, 1% ethylene glycol, 0.1% pluronic F-68 (pH 8.0)) and the bound protein was eluted with elution buffer 1 (20 mmol/L HEPES-NaOH, 100 μg/mL peptide (amino acid sequence DYKDDDDK) (SEQ ID NO: 1), 500 mmol/L sodium chloride, 1% ethylene glycol, 0.1% pluronic F-68 (pH 8.0)). The eluted fractions containing FLAG-Tagged protein were pooled, concentrated by an ultrafiltration method, added to a gel filtration column (HiLoad 26/60 Superdex 200), and eluted with elution buffer 2 (20 mmol/L HEPES-NaOH, 150 mmol/L sodium chloride, 0.5 mmol/L ethylenediaminetetraacetic acid (EDTA), 1% ethylene glycol, 0.1% pluronic F-68 (pH 8.0)). The eluted fractions were pooled and preserved at −80° C.
as §2, with “PDH” for “PDH (porcine heart PDH complex, Sigma P7032)”, “hPDHK2” for “hPDHK1”, “PDH/hPDHK2” for “PDH/hPDHK1”
The test compounds were diluted with DMSO. To measure an inhibitory action of the test compound on the PDHK activity in the PDH/hPDHK2 complex solution, PDH/hPDHK2 complex solution (20 μL), test compound (1.5 μL) and 1.06 μmol/L ATP (diluted with assay buffer) (8.5 μL) were added to a 384 well microplate and PDHK reaction was performed at room temperature for 45 min (test compound well). DMSO (1.5 μL) was added to control wells instead of test compound. In addition, DMSO (1.5 μL) was added to blank wells instead of the test compound, and PDH solution was added instead of the PDH/hPDHK2 complex solution. To measure an inhibitory action of the test compound on the PDHK activity inherent in the PDH solution, a test compound was added and the PDH solution instead of the PDH/hPDHK2 complex solution was added to a blank+test compound well.
Then, 10 μL of substrates (5 mmol/L sodium pyruvate, 5 mmol/L Coenzyme A, 12 mmol/L NAD, 5 mmol/L thiamine pyrophosphate, diluted with assay buffer) were added. The mixture was incubated at room temperature for 90 min, and the residual PDH activity was measured. […]

Sequence of human PDHK1 (hPDHK1) (Q15118 29-436): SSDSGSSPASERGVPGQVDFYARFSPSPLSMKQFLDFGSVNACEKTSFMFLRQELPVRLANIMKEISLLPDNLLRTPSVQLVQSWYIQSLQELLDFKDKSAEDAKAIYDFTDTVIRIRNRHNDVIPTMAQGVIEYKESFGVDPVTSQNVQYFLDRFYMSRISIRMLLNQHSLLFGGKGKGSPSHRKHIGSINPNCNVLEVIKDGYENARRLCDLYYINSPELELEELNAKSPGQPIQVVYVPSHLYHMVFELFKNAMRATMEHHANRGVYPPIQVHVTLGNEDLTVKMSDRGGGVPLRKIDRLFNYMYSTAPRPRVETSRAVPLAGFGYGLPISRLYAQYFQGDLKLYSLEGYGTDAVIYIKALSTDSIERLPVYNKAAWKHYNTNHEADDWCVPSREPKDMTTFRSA

| Compound | IC50 (human PDHK1 (hPDHK1)) | IC50 (human PDHK2 (hPDHK2)) | inhibition at 0.003 µM (human PDHK1 (hPDHK1)) | hPDHK2 inhibitory rate at the lowest concentration of the test compound (human PDHK2 (hPDHK2); lowest concentration of the test compound in the assay (<3 nmol/L), shown when IC50 value could not be calculated) |
| --- | --- | --- | --- | --- |
| C[C@H]1CN(C(=O)c2c(Cl)c(-c3ccc(C#N)cc3)nn2C)Cc2cnc([C@@](C)(O)C(F)(F)F)n21 [Example 40, 4-(4-chloro-1-methyl-5-((S)-5-methyl-3-((R)-1,1,1-trifluoro-2-hydroxypropan-2-yl)-5,6,7,8-tetrahydroimidazo[1,5-a]pyrazine-7-carbonyl)-1H-pyrazol-3-yl)benzonitrile] | 5 nM | 6 nM | – | – |
| C[C@H]1CN(C(=O)c2cc(-c3ccc(F)cn3)nn2C)Cc2cnc([C@@](C)(O)C(F)(F)F)n21 [Example 81] | 5 nM | 7 nM | – | – |
| C[C@H]1CN(C(=O)c2ccnc(C3CC3)c2)Cc2cnc([C@@](C)(O)C(F)(F)F)n21 [Example 96] | 8 nM | 8 nM | – | – |
| C[C@H]1CN(C(=O)c2ccc(F)c(C3CC3)n2)Cc2cnc([C@@](C)(O)C(F)(F)F)n21 [Example 23] | 6 nM | 12 nM | – | – |
| C[C@H]1CN(C(=O)c2cn(C)nc2C2CC2)Cc2onc([C@@](C)(O)C(F)(F)F)c21 [Example 121] | 5 nM | 5 nM | – | – |
| C[C@H]1CN(C(=O)c2ccc(C#N)c(-c3ccc(F)cn3)c2)Cc2cnc([C@@](C)(O)C(F)(F)F)n21 [Example 77] | 6 nM | 9 nM | – | – |
| C[C@H]1CN(C(=O)c2cc(-c3ccc(C#N)cc3)n(C)n2)Cc2cnc([C@@](C)(O)C(F)(F)F)n21 [Example 33] | 12 nM | 16 nM | – | – |
| C[C@H]1CN(C(=O)c2cc(-c3ccc(F)cc3)on2)Cc2cnc([C@@](C)(O)C(F)(F)F)n21 [Example 26] | 9 nM | 14 nM | – | – |
| COc1ccc(-c2cc(C(=O)N3Cc4cnc([C@@](C)(O)C(F)(F)F)n4[C@@H](C)C3)no2)cc1 [Example 25] | 7 nM | 14 nM | – | – |
| C[C@H]1CN(C(=O)c2cc(-c3ccc(C#N)cc3)nn2C)Cc2cnc([C@@](C)(O)C(F)(F)F)n21 [Example 31] | 9 nM | 11 nM | – | – |
| C[C@H]1CN(C(=O)c2cc(C3CCOCC3)nn2C)Cc2cnc([C@@](C)(O)C(F)(F)F)n21 [Example 20] | 8 nM | 12 nM | – | – |

These reach a lower IC50 (human PDHK1 (hPDHK1)). Values come first.

| IC50 (human PDHK1 (hPDHK1)) | IC50 (human PDHK2 (hPDHK2)) | inhibition at 0.003 µM (human PDHK1 (hPDHK1)) | hPDHK2 inhibitory rate at the lowest concentration of the test compound (human PDHK2 (hPDHK2); lowest concentration of the test compound in the assay (<3 nmol/L), shown when IC50 value could not be calculated) | Compound |
| --- | --- | --- | --- | --- |
| < 3 nM | < 3 nM | 66% | 53% | C[C@H]1CN(C(=O)c2ccnc(-c3ccc(F)cc3)c2F)Cc2cnc([C@@](C)(O)C(F)(F)F)n21 [Example 87] |
| 3 nM | 4 nM | – | – | C[C@H]1CN(C(=O)c2cc(-c3ccc(C#N)cc3)nn2C2CC2)Cc2cnc([C@@](C)(O)C(F)(F)F)n21 [Example 35] |
| 4 nM | 5 nM | – | – | C[C@H]1CN(C(=O)c2cc3n(n2)CCC3)Cc2onc([C@@](C)(O)C(F)(F)F)c21 [Example 100] |
| 4 nM | 4 nM | – | – | C[C@H]1CN(C(=O)c2cccc3[nH]ncc23)Cc2onc([C@@](C)(O)C(F)(F)F)c21 [Example 102] |
| 3 nM | 6 nM | – | – | C[C@H]1CN(C(=O)c2cncc(-c3ccc(F)cc3)c2)Cc2cnc([C@@](C)(O)C(F)(F)F)n21 [Example 80] |
| 3 nM | 5 nM | – | – | C[C@H]1CN(C(=O)c2cc(-c3ccc(F)cc3C#N)nn2C)Cc2cnc([C@@](C)(O)C(F)(F)F)n21 [Example 61] |
| 4 nM | 5 nM | – | – | C[C@H]1CN(C(=O)c2c3ccc(C#N)cc3nn2C)Cc2cnc([C@@](C)(O)C(F)(F)F)n21 [Example 4, 2-methyl-3-((S)-5-methyl-3-((R)-1,1,1-trifluoro-2-hydroxypropan-2-yl)-5,6,7,8-tetrahydroimidazo[1,5-a]pyrazine-7-carbonyl)-2H-indazole-6-carbonitrile] |
| < 3 nM | 6 nM | 49% | – | C[C@H]1CN(C(=O)c2ccc(C#N)c(-n3cc(Cl)cn3)c2)Cc2cnc([C@@](C)(O)C(F)(F)F)n21 [Example 85] |
